Source: PubChem BioAssay AID179 (DTP/NCI, 2004)
Activity calls are given as the source filed them.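 How the source made its calls: active means compounds giving half or more protection of infected cells from virus-caused growth loss, again on retest; inactive means the rest.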 Where a SMILES comes first, the peptide text is derived from it. [ ]: non-standard residue; d: D form. The star is where a group is joined. mTyr = N[CH](Cc1cccc(O)c1)C(=O)O; Cbz = O=C(OCc1ccccc1)*; OBn = c1ccc(CO*)cc1

System: CEM cells HIV-1 protection, formazan growth assay
Test: NCI AIDS Antiviral Assay
Conditions: for IC50: measured here: growth of uninfected CEM cells
How it was run: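 Protection of CEM cells against HIV-1 measured as cell growth via soluble formazan read-out, with five concentrations tested on both infected and uninfected cells; failure to protect may reflect toxicity.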

| Compound | EC50 [µM] | IC50 [µM] | outcome |
| --- | --- | --- | --- |
| COC(=O)C1=C(C(=O)OC)C2C3CC4C(C13)C42 | > 200 | > 200 | – |
| CC(C)NC1CCCCC2c3ccccc3C12O (configuration not stated) | 145 | > 200 | – |
| O=C1NC2(O)C(=O)c3ccccc3C2(O)N1 (configuration not stated) | > 1120 | > 1120 | – |
| N#Cc1nc(-c2ccco2)oc1N | > 200 | > 200 | – |
| CN1N=C(c2ccncc2)OC1c1ccc(Cl)cc1Cl (configuration not stated) | > 200 | 85.1 | – |
| Cc1ccc(NC(=S)/N=C/C(C(=O)c2ccccc2)=C(\O)c2ccccc2)c(C)c1 | > 200 | 31.6 | – |
| COC(=O)C1C(OC(=O)c2ccccc2)CC2CCC1N2C(N)=O (configuration not stated) | > 200 | > 200 | – |
| CCC(C)/C(=C\C(=O)O)C(=O)O (configuration not stated) | > 200 | > 200 | – |
| COc1cccc2c1C1=CC(=O)CCC1C(C)(C)O2 (configuration not stated) | > 195 | 110 | – |
| COc1ccc(CN2CCCN(/N=C/c3c4c(O)c5c(O)c(C)c6c(c5c3O)C(=O)C(C)(O/C=C/C(OC)C(C)C(OC(C)=O)C(C)C(O)C(C)C(O)C(C)/C=C/C=C(C)C(=O)N4)O6)CC2)cc1 (configuration not stated) | > 200 | 12 | – |
| O=c1oc2cc(O)ccc2c2[nH]c3cc(O)ccc3c12 | > 97.7 | 17 | – |
| O=C(CCCN1CCC2(CC1)NC(=O)c1ccccc1O2)c1ccc(F)cc1 | > 200 | > 200 | – |
| CC[C@]1(Cc2ccc(OC)c(OC)c2)C=[N+]([O-])O[C@H](OC2CCCCC2c2ccccc2)[C@@H]1OC(C)=O (some centres not stated) | > 200 | 30.2 | – |
| CC(=O)N(C)n1cn[n+](CC(=O)OC(C)(C)C)c1 | > 200 | > 200 | – |
| Clc1ccc(-c2cc[s+]s2)cc1 | > 200 | 33.1 | – |
| CC(=O)Nc1ccc(C(=O)CCC(NC(C)=O)C(=O)O)cc1 (configuration not stated) | > 200 | > 200 | – |
| O[C@H]1c2cccn2-c2ccccc2S[C@H]1c1ccccc1 | > 83.2 | 43.7 | – |
| O=C(O)COc1c2occc2cc2ccc(=O)oc12 | > 347 | > 347 | – |
| CC1=NN(C(=O)c2ccc(Cl)cc2)C(=O)/C1=C/c1cccc([N+](=O)[O-])c1 | > 19.5 | > 19.5 | – |
| Cc1cc(O)c2c(c1)C(O)(c1ccc3c(c1O)C(=O)c1c(O)cc(C)cc1C3(O)C1OC(CO)C(O)C(O)C1O)c1cccc(O)c1C2=O (configuration not stated) | – | – | inactive |
| C[N+]12C=CC=C1C(N1CCCC1)c1scc(-c3ccc(F)cc3)c12 (configuration not stated) | > 200 | 24.5 | – |
| CN1CC2=C(NCNS2(=O)=O)N(C)C1 | > 148 | > 148 | – |
| CC(=O)Nc1[nH]c(=O)[nH]c(=O)c1N(C(C)=O)C(C)=O | > 933 | > 933 | – |

| Compound | EC50 [µM] | IC50 [µM] | outcome |
| --- | --- | --- | --- |
| CC(=O)Nc1cc(=O)[nH]c2c1CCC2 | – | – | inactive |
| COC(=O)Sc1c2sc(C(=O)OC)c(C)c2n2ccccc12 | – | – | inactive |
| COC(=O)C(Cc1cccc(O)c1)NC(=O)C(CC(=O)OCc1ccccc1)NC(=O)OCc1ccccc1 (configuration not stated) (Cbz-Asp(OBn)-[mTyr]-OMe; configuration not given here) | > 200 | 91.2 | – |
| CC(C)(C)c1cc(Oc2ccc(C#N)c(C#N)c2)cc(C(C)(C)C)c1 | > 40.7 | > 40.7 | – |
| COc1cc2c3c(c1)[nH]c(=S)n3C(=O)C(c1ccccc1)S2 (configuration not stated) | > 200 | 40.7 | – |
| CCCC(=O)O[C@@H]1C(C)C2(O)C3C=C(C)C(=O)[C@@]3(O)CC(CO)=C[C@H]2C2C(C)(C)C21OC(=O)CCC (some centres not stated) | – | – | inactive |
| NC(=O)NNC(=O)c1nc[nH]c1[N+](=O)[O-] | > 200 | > 200 | – |
| Cc1nc2ccccc2n1COC(Cn1ccnc1)c1ccc(Cl)cc1Cl (configuration not stated) | > 200 | 135 | – |
| Cn1cnc(=S)c2ccccc21 | > 200 | > 200 | – |
| CC12CCC(=O)[C@@]1(C)CCCC2=O (some centres not stated) | – | – | inactive |
| O=C(c1ccc(Cl)cc1Cl)C1[C@H]2C(=O)N(c3ccc(Cc4ccc(N5C(=O)[C@@H]6ON(c7ccccc7)C(C(=O)c7ccc(Cl)cc7Cl)[C@@H]6C5=O)cc4)cc3)C(=O)[C@H]2ON1c1ccccc1 (some centres not stated) | > 38 | > 38 | – |
| CC(=O)c1cccc(C(C)=O)c1N=Cc1ccc(O)cc1 | – | – | inactive |
| Cc1occc1C(=S)Nc1ccc(Cl)c(C(=O)OCC(F)(F)F)c1 | 0.0195 | 19.1 | – |
| O=C1C2=C(c3ccccc31)C(c1ccccc1Cl)NC(=S)N2 (configuration not stated) | > 79.4 | 33.1 | – |
| CC1C(c2ccc3c(c2)OCO3)c2cc3c(cc2OC1N1CCOCC1)OCO3 (configuration not stated) | > 200 | 10.7 | – |
| CC1=CC(=O)C(C(O)(C(F)(F)F)C(F)(F)F)C(C)(C)C1 (configuration not stated) | > 200 | > 200 | – |
| COc1cc(N=Nc2cc(S(=O)(=O)O)c3cccnc3c2O)ccc1-c1ccc(N=Nc2cc(S(=O)(=O)O)c3cccnc3c2O)cc1OC | 100 | 182 | – |
| C/C(=N\N=C(N)N)C(CN1CCCCC1)C(c1ccccc1)c1c(O)c2ccccc2oc1=O (configuration not stated) | > 52.5 | > 52.5 | – |
| CC(C)CCOC(=O)NC(Nc1ccc(F)cc1)(C(F)(F)F)C(F)(F)F | – | – | inactive |
| N#Cc1ccc(CSc2ncnc3nc[nH]c23)cc1 | > 200 | 81.3 | – |
| CC(=O)NNc1nc(C)c(C(/C=C/c2ccc3c(c2)OCO3)=N/Nc2ccccc2)s1 | > 56.2 | > 56.2 | – |
| N#CC(C(=O)C(=O)Nc1c(Cl)cccc1Cl)c1ccccc1 (configuration not stated) | – | – | inactive |
